Source: patent publication US6914045B2, “Glycopeptide antibiotics” (Wyeth Holdings Corporation, priority 2001, dated 2005)
Converted amounts (≈) assume the structure as drawn.

Key:
Experiment in all cases: in vitro antibacterial evaluation, MIC by broth dilution
Type in all cases: cell-based
Enterococcus sp. = conditions: broth dilution, 18 hours at 35° C.
Outline: (§1)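 Following National Committee for Clinical Laboratory Standards recommendations (M7-A2), susceptibility was measured by dilution in Muller-Hinton II […]. Bacteria were seeded at 5×10^5 CFU/mL against compound concentrations from 64 down to 0.06 μg/mL.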

Staphylococcus sp. = conditions: broth dilution, 18 hours at 35° C.
Outline: as §1

Streptococcus sp. = conditions: broth dilution, 18 hours at 35° C.
Outline: as §1

Escherichia coli = conditions: 18 hours at 35° C.

- MIC Enterococcus avium (GC 4558) (Enterococcus sp.): 16 µg/mL (≈ 11 µM)
- MIC Enterococcus faecalis (ATCC 29212) (Enterococcus sp.): 16 µg/mL (≈ 11 µM)
- MIC Enterococcus faecalis (GC 2242) (Enterococcus sp.): 16 µg/mL (≈ 11 µM)
- MIC Enterococcus faecalis (GC 2691) (Enterococcus sp.): 16 µg/mL (≈ 11 µM)
- MIC Enterococcus faecalis (GC 3059) (Enterococcus sp.): 32 µg/mL (≈ 21.9 µM)
- MIC Enterococcus faecalis (GC 4552) (Enterococcus sp.): 32 µg/mL (≈ 21.9 µM)
- MIC Enterococcus faecalis (GC 4553) (Enterococcus sp.): 32 µg/mL (≈ 21.9 µM)
- MIC Enterococcus faecalis (GC 4554) (Enterococcus sp.): 32 µg/mL (≈ 21.9 µM)
- MIC Enterococcus faecalis (GC 6189) (Enterococcus sp.): 16 µg/mL (≈ 11 µM)
- MIC Enterococcus faecium (GC 2243) (Enterococcus sp.): 16 µg/mL (≈ 11 µM)
- MIC Enterococcus faecium (GC 4556) (Enterococcus sp.): 32 µg/mL (≈ 21.9 µM)
- MIC Enterococcus faecium (GC 4557) (Enterococcus sp.): 4 µg/mL (≈ 2.74 µM)
- MIC Enterococcus faecalis (ATCC 29212) (Enterococcus sp.; strain ATCC 29212): 16 µg/mL (≈ 11 µM)
- MIC Enterococcus faecium (GC 2243) (Enterococcus sp.; strain GC 2243): 16 µg/mL (≈ 11 µM)
- MIC Enterococcus faecalis (GC 4552) (Enterococcus sp.; strain GC 4552): 32 µg/mL (≈ 21.9 µM)
- MIC Enterococcus faecalis (GC 4553) (Enterococcus sp.; strain GC 4553): 32 µg/mL (≈ 21.9 µM)
- MIC Enterococcus faecalis (GC 4554) (Enterococcus sp.; strain GC 4554): 32 µg/mL (≈ 21.9 µM)
- MIC Enterococcus faecium (GC 4556) (Enterococcus sp.; strain GC 4556): 32 µg/mL (≈ 21.9 µM)
- MIC Enterococcus faecium (GC 4557) (Enterococcus sp.; strain GC 4557): 4 µg/mL (≈ 2.74 µM)
- MIC Enterococcus avium (GC 4558) (Enterococcus sp.; strain GC 4558): 16 µg/mL (≈ 11 µM)
- MIC Enterococcus faecalis (GC 6189) (Enterococcus sp.; strain GC 6189): 16 µg/mL (≈ 11 µM)
- MIC Enterococcus faecalis (GC 2242) (Enterococcus sp.; inoculum 5×10^5 CFU/mL, strain GC 2242): 16 µg/mL (≈ 11 µM)
- MIC Enterococcus faecalis (GC 2691) (Enterococcus sp.; inoculum 5×10^5 CFU/mL, strain GC 2691): 16 µg/mL (≈ 11 µM)
- MIC Enterococcus faecalis (GC 3059) (Enterococcus sp.; inoculum 5×10^5 CFU/mL, strain GC 3059): 32 µg/mL (≈ 21.9 µM)
- MIC Coagulase Negative Staphylococcus (GC 4547) (Staphylococcus sp.): 2 µg/mL (≈ 1.37 µM)
- MIC Coagulase Negative Staphylococcus (GC 4548) (Staphylococcus sp.): 2 µg/mL (≈ 1.37 µM)
- MIC Coagulase Negative Staphylococcus (GC 4549) (Staphylococcus sp.): 2 µg/mL (≈ 1.37 µM)
- MIC Coagulase Negative Staphylococcus (GC 4551) (Staphylococcus sp.): 4 µg/mL (≈ 2.74 µM)
- MIC Coagulase Negative Staphylococcus (GC 6257) (Staphylococcus sp.): 1 µg/mL (≈ 0.685 µM)
- MIC Staphylococcus aureus (ATCC 29213) (Staphylococcus sp.): 4 µg/mL (≈ 2.74 µM)
- MIC Staphylococcus aureus (GC 1131) (Staphylococcus sp.): 4 µg/mL (≈ 2.74 µM)
- MIC Staphylococcus aureus (GC 3051) (Staphylococcus sp.): 4 µg/mL (≈ 2.74 µM)
- MIC Staphylococcus aureus (GC 3053) (Staphylococcus sp.): 8 µg/mL (≈ 5.48 µM)
- MIC Staphylococcus aureus (GC 4541) (Staphylococcus sp.): 4 µg/mL (≈ 2.74 µM)
- MIC Staphylococcus aureus (GC 4542) (Staphylococcus sp.): 4 µg/mL (≈ 2.74 µM)
- MIC Staphylococcus aureus (GC 4544) (Staphylococcus sp.): 8 µg/mL (≈ 5.48 µM)
- MIC Staphylococcus aureus (GC 4545) (Staphylococcus sp.): 2 µg/mL (≈ 1.37 µM)
- MIC Staphylococcus aureus-SMITH (GC 4543) (Staphylococcus sp.): 4 µg/mL (≈ 2.74 µM)
- MIC Staphylococcus aureus (ATCC 29213) (Staphylococcus sp.; strain ATCC 29213): 4 µg/mL (≈ 2.74 µM)
- MIC Staphylococcus aureus (GC 1131) (Staphylococcus sp.; strain GC 1131): 4 µg/mL (≈ 2.74 µM)
- MIC Staphylococcus aureus (GC 3051) (Staphylococcus sp.; strain GC 3051): 4 µg/mL (≈ 2.74 µM)
- MIC Staphylococcus aureus (GC 3053) (Staphylococcus sp.; strain GC 3053): 8 µg/mL (≈ 5.48 µM)
- MIC Staphylococcus aureus (GC 4541) (Staphylococcus sp.; strain GC 4541): 4 µg/mL (≈ 2.74 µM)
- MIC Staphylococcus aureus (GC 4542) (Staphylococcus sp.; strain GC 4542): 4 µg/mL (≈ 2.74 µM)
- MIC Staphylococcus aureus-SMITH (GC 4543) (Staphylococcus sp.; strain GC 4543): 4 µg/mL (≈ 2.74 µM)
- MIC Staphylococcus aureus (GC 4544) (Staphylococcus sp.; strain GC 4544): 8 µg/mL (≈ 5.48 µM)
- MIC Staphylococcus aureus (GC 4545) (Staphylococcus sp.; strain GC 4545): 2 µg/mL (≈ 1.37 µM)
- MIC Coagulase Negative Staphylococcus (GC 4547) (Staphylococcus sp.; strain GC 4547): 2 µg/mL (≈ 1.37 µM)
- MIC Coagulase Negative Staphylococcus (GC 4548) (Staphylococcus sp.; strain GC 4548): 2 µg/mL (≈ 1.37 µM)
- MIC Coagulase Negative Staphylococcus (GC 4549) (Staphylococcus sp.; strain GC 4549): 2 µg/mL (≈ 1.37 µM)
- MIC Coagulase Negative Staphylococcus (GC 4551) (Staphylococcus sp.; strain GC 4551): 4 µg/mL (≈ 2.74 µM)
- MIC Coagulase Negative Staphylococcus (GC 6257) (Staphylococcus sp.; strain GC 6257): 1 µg/mL (≈ 0.685 µM)
- MIC Streptococcus agalactiae (GC 4564) (Streptococcus sp.): 2 µg/mL (≈ 1.37 µM)
- MIC Streptococcus pneumoniae (ATCC 6301) (Streptococcus sp.): 1 µg/mL (≈ 0.685 µM)
- MIC Streptococcus pneumoniae (GC 1894) (Streptococcus sp.): 0.5 µg/mL (≈ 0.343 µM)
- MIC Streptococcus pneumoniae (GC 4565) (Streptococcus sp.): 1 µg/mL (≈ 0.685 µM)
- MIC Streptococcus pyogenes (GC 4563) (Streptococcus sp.): 1 µg/mL (≈ 0.685 µM)
- MIC Streptococcus pneumoniae (ATCC 6301) (Streptococcus sp.; inoculum 5×10^5 CFU/mL, strain ATCC 6301): 1 µg/mL (≈ 0.685 µM)
- MIC Streptococcus pneumoniae (GC 1894) (Streptococcus sp.; inoculum 5×10^5 CFU/mL, strain GC 1894): 0.5 µg/mL (≈ 0.343 µM)
- MIC Streptococcus pyogenes (GC 4563) (Streptococcus sp.; inoculum 5×10^5 CFU/mL, strain GC 4563): 1 µg/mL (≈ 0.685 µM)
- MIC Streptococcus agalactiae (GC 4564) (Streptococcus sp.; inoculum 5×10^5 CFU/mL, strain GC 4564): 2 µg/mL (≈ 1.37 µM)
- MIC Streptococcus pneumoniae (GC 4565) (Streptococcus sp.; inoculum 5×10^5 CFU/mL, strain GC 4565): 1 µg/mL (≈ 0.685 µM)
- MIC Escherichia coli (ATCC 25922) (Escherichia coli): >64 µg/mL
- MIC Escherichia coli (GC 4559) (Escherichia coli): >64 µg/mL
- MIC Escherichia coli (GC 4560) (Escherichia coli): 2 µg/mL (≈ 1.37 µM)
Structure (SMILES): CCOc1cc(COCC2OC(OC3C(CO)OC(Oc4ccc(CC5NC(=O)C(C(C)c6ccccc6)NC(=O)CNC(=O)C(CO)NC(=O)C(C(O)C6CNC(=N)N6C6OC(CO)C(O)C(O)C6O)NC(=O)C(C(O)C6CNC(=N)N6)NC5=O)cc4)C(O)C3O)C(O)C(O)C2O)ccc1OC (stereo not shown) [Example 238]
- MIC Staphylococcus haemolyticus (GC 4546) (Staphylococcus sp.): 2 µg/mL (≈ 1.37 µM)
- MIC Staphylococcus haemolyticus (GC 4546) (Staphylococcus sp.; strain GC 4546): 2 µg/mL (≈ 1.37 µM)
